Measured values as given in US12509437B2, “Substituted thiophene carboxamides and derivatives thereof as microbicides” (Bayer Aktiengesellschaft, priority 2019, dated 2025).

Assay: LogP by HPLC on reversed phase columns (EEC directive 79/831 Annex V.A8)
Format: physicochemical
Conditions: method [a]
Experimental: [table] If more than one Log P value is available within the same method, all the values are given and separated by “+”. Calibration was done with straight-chain alkan2-ones (with 3 to 16 carbon atoms) with known Log P values (measurement of Log P values using retention times with linear interpolation between successive alkanones). Lambda-max-values were determined using UV-spectra from 200 nm to 400 nm and the peak values of the chromatographic signals.

| SMILES | LogP |
| --- | --- |
| Cc1c(C(=O)NCC#N)sc(Br)c1Br [I.026] | 2.59^[a] |
| COC(=O)[C@H](CCC(=O)O)NC(=O)c1sc(Cl)c(Cl)c1C [I.103] | 2.39^[a] |
| Cc1c(C(=O)NC(C(=O)OCc2ccccc2)C2CC2)sc(Cl)c1Cl (centres unmarked) [I.140] | 4.53^[a] |
| Cc1c(C(=O)NC2(C(N)=S)CC2)sc(Cl)c1Cl [I.159] | 2.54^[a] |
| CCOC(=O)CN(OC)C(=O)c1sc(Br)c(Br)c1C [I.097] | 3.93^[a] |
| Cc1c(C(=S)NC2(C(=O)OC3CCC3)CC2)sc(Br)c1Br [I.127] | 4.66^[a] |
| CCOC(=O)C(CC1CC1)NC(=O)c1sc(Cl)c(Cl)c1C (centres unmarked) [I.085] | 4.23^[a] |
| COC(=O)C(NC(=O)c1sc(Cl)c(Cl)c1C)C(=O)OC [I.084] | 3.01^[a] |
| CCOC(=O)C1(NC(=O)c2sc(Br)c(Br)c2C)CCOCC1 [I.139] | 3.17^[a] |
| Cc1c(C(=O)NC(CO)C(=O)O)sc(Cl)c1Cl (centres unmarked) [I.067] | 1.84^[a] |
| CCOC(=O)C1(NC(=O)c2sc(Cl)c(Cl)c2C)CN(C(=O)OC(C)(C)C)C1 [I.088] | 4.15^[a] |
| CCSC(=O)C(NC(=O)c1sc(Br)c(Br)c1C)C(C)C (centres unmarked) [I.008] | 4.74^[a] |
| Cc1c(C(=O)NC(C(=O)NO)C(C)C)sc(Br)c1Br (centres unmarked) [I.115] | 2.31^[a] |
| COC(=O)CNC(=S)c1sc(Cl)c(Cl)c1C [I.113] | 3.60^[a] |
| Cc1c(C(=O)NC2(C(=O)OC(C)(C)C)CC(F)(F)C2)sc(Cl)c1Cl [I.145] | 4.48^[a] |
| CCNC(=O)SC[C@H](NC(=O)c1sc(Cl)c(Cl)c1C)C(=O)OC [I.120] | 3.22^[a] |
| Cc1c(C(=O)NC(C)(C#N)C2CC2)sc(Br)c1Br (centres unmarked) [I.152] | 3.50^[a] |
| Cc1c(C(=O)NC(C(=O)OC(C)C)C2CC2)sc(Cl)c1Cl (centres unmarked) [I.154] | 4.23^[a] |
| COC(=O)CC(NC(=O)c1sc(Cl)c(Cl)c1C)C(=O)OC (centres unmarked) [I.118] | 3.00^[a] |
| Cc1c(C(=O)NC2(C#N)CC2)sc(Br)c1Br [I.027] | 2.80^[a] |
| COC(=O)C(C)(Cc1ccccc1)NC(=O)c1sc(Cl)c(Cl)c1C (centres unmarked) [I.166] | 4.60^[a] |
| CCOC(=O)CN(C)C(=O)c1sc(Cl)c(Cl)c1C [I.057] | 3.15^[a] |
| COC(=O)[C@@H](CC(N)=O)NC(=O)c1sc(Br)c(Br)c1C [I.052] | 2.12^[a] |
| COC(=O)C1(NC(=O)c2sc(Cl)c(Cl)c2C)CC(F)(F)C1 [I.143] | 3.43^[a] |
| CNC(=O)C1(NC(=O)c2sc(Cl)c(Cl)c2C)CC1 [I.160] | 2.12^[a] |
| CCOC(=O)CNC(=S)c1sc(Cl)c(Cl)c1C [I.099] | 3.92^[a] |
| CCOC(=O)C1(NC(=O)c2sc(Cl)c(Cl)c2C)CSC1 [I.146] | 3.60^[a] |

| SMILES | LogP |
| --- | --- |
| COC(=O)CC1(NC(=O)c2sc(Br)c(Br)c2C)CC1 [I.012] | 3.07^[a] |
| Cc1c(C(=O)NC(C(=O)NC(C(=O)O)C2CC2)C2CC2)sc(Cl)c1Cl (centres unmarked) [I.096] | 2.67^[a] |
| Cc1c(C(=O)NC2(C3(C(=O)OC(C)C)CC3)CC2)sc(Br)c1Br [I.020] | 4.87^[a] |
| CCOC(=O)C(C(C)C)N(C)C(=O)c1sc(Br)c(Br)c1C (centres unmarked) [I.058] | 4.51^[a] |
| CCOC(=O)C(NC(=O)c1sc(Cl)c(Cl)c1C)C(=O)OCC [I.087] | 3.81^[a] |
| Cc1c(C(=O)NC(CC(N)=O)C(=O)O)sc(Cl)c1Cl (centres unmarked) [I.068] | 1.73^[a] |
| CCOC(=O)C(C(C)C)N(C)C(=O)c1sc(Cl)c(Cl)c1C (centres unmarked) [I.059] | 4.44^[a] |
| CCOC(=O)C(C)NC(=S)c1sc(Br)c(Br)c1C (centres unmarked) [I.150] | 4.38^[a] |
| COC(=O)[C@H](CC(N)=O)NC(=O)c1sc(Cl)c(Cl)c1C [I.055] | 2.02^[a] |
| CNC(=S)SC[C@H](NC(=O)c1sc(Cl)c(Cl)c1C)C(=O)OC [I.121] | 3.33^[a] |
| COC(=O)CC(C)NC(=O)c1sc(Br)c(Br)c1C (centres unmarked) [I.109] | 3.14^[a] |
| CCOC(=O)CN(C(=O)c1sc(Cl)c(Cl)c1C)C1CC1 [I.168] | 3.75^[a] |
| Cc1c(C(=O)NCC(=O)Sc2ccccc2)sc(Br)c1Br [I.011] | 4.10^[a] |
| CCSC(=O)C(NC(=O)c1sc(Cl)c(Cl)c1C)C(C)C (centres unmarked) [I.042] | 4.69^[a] |
| CCOC(=O)C(CC(F)(F)F)NC(=O)c1sc(Br)c(Br)c1C (centres unmarked) [I.018] | 3.99^[a] |
| COC(=O)[C@H](CCC(=O)O)NC(=O)c1sc(Br)c(Br)c1C [I.104] | 2.46^[a] |
| Cc1c(C(=O)NC2(C(N)=O)CC2)sc(Br)c1Br [I.129] | 2.07^[a] |
| CNC(=O)C1(NC(=O)c2sc(Br)c(Br)c2C)CC1 [I.130] | 2.21^[a] |
| Cc1c(C(=S)NC2(C(=O)O)CC2)sc(Br)c1Br [I.102] | 2.91^[a] |
| CCOC(=O)C1(NC(=O)c2sc(Br)c(Br)c2C)CN(C(=O)OC(C)(C)C)C1 [I.090] | 4.23^[a] |
| Cc1c(C(=O)NC2(C#N)CCSCC2)sc(Br)c1Br [I.169] | 3.59^[a] |
| COC(=O)C1(NC(=O)c2sc(Cl)c(Cl)c2C)COC1 [I.144] | 2.52^[a] |
| CCOC(=O)CCNC(=O)c1sc(Cl)c(Cl)c1C [I.038] | 3.06^[a] |
| COC(=O)C1(NC(=O)c2sc(Br)c(Br)c2C)CCOCC1 [I.107] | 2.82^[a] |
| CCOC(=O)C(NC(=O)c1sc(Br)c(Br)c1C)(OCC)C(C)C (centres unmarked) [I.112] | 4.80^[a] |
| COC(=O)C1(NC(=O)c2sc(Cl)c(Cl)c2C)CC(C)(C)C1 [I.142] | 4.05^[a] |
| CON(C)C(=O)C(NC(=O)c1sc(Br)c(Br)c1C)C(C)C (centres unmarked) [I.061] | 3.71^[a] |

| SMILES | LogP |
| --- | --- |
| Cc1c(C(=O)NC(C(=O)OC(C)(C)C)C2CC2)sc(Cl)c1Cl (centres unmarked) [I.161] | 4.70^[a] |
| COC(=O)C1(NC(=S)c2sc(Cl)c(Cl)c2C)CC1 [I.050] | 3.68^[a] |
| Cc1c(C(=S)NCC(=O)O)sc(Cl)c1Cl [I.172] | 2.71^[a] |
| Cc1c(C(=O)NC(CCC(N)=O)C(=O)O)sc(Cl)c1Cl (centres unmarked) [I.069] | 1.70^[a] |
| CCOC(=O)C1(C2(NC(=O)c3sc(Br)c(Br)c3C)CC2)CC1 [I.017] | 4.37^[a] |
| COC(=O)C(C)NC(=S)c1sc(Br)c(Br)c1C (centres unmarked) [I.149] | 4.05^[a] |
| Cc1c(C(=O)NC(C#N)c2ccccc2)sc(Br)c1Br (centres unmarked) [I.029] | 3.85^[a] |
| Cc1c(C(=O)NC2(C(N)=O)CC2)sc(Cl)c1Cl [I.063] | 1.96^[a] |
| CCCCOC(=O)C1(NC(=O)c2sc(Cl)c(Cl)c2C)CCC1 [I.157] | 4.59^[a] |
| Cc1c(C(=O)NCC2(C(=O)O)CC2)sc(Br)c1Br [I.019] | 2.50^[a] |
| Cc1c(C(=O)NC(C(N)=O)C(C)C)sc(Br)c1Br (centres unmarked) [I.051] | 2.58^[a] |
| CCOC(=O)CCC(NC(=O)c1sc(Cl)c(Cl)c1C)C(=O)OCC (centres unmarked) [I.124] | 3.84^[a] |
| Cc1c(C(=O)NC2(C(=O)NC3CCC3)CC2)sc(Br)c1Br [I.135] | 2.94^[a] |
| COC(=O)C(NC(=O)c1sc(Cl)c(Cl)c1C)(C1CC1)C1CC1 [I.086] | 3.94^[a] |
| COC(=O)[C@@H](CC(N)=O)NC(=O)c1sc(Cl)c(Cl)c1C [I.054] | 2.05^[a] |
| Cc1c(C(=O)NC(CCC(N)=O)C(=O)O)sc(Br)c1Br (centres unmarked) [I.072] | 1.77^[a] |
| CCOC(=O)CC(NC(=O)c1sc(Cl)c(Cl)c1C)C(=O)OCC (centres unmarked) [I.123] | 3.76^[a] |
| Cc1c(C(=O)NC(C(=O)OC2CCC2)C2CC2)sc(Cl)c1Cl (centres unmarked) [I.153] | 4.44^[a] |
| CCOC(=O)C1(NC(=S)c2sc(Br)c(Br)c2C)CC1 [I.100] | 4.15^[a] |
| CCOC(=O)C(CC1CC1)NC(=O)c1sc(Br)c(Br)c1C (centres unmarked) [I.092] | 4.30^[a] |
| CNC(=O)CNC(=O)c1sc(Cl)c(Cl)c1C [I.110] | 1.92^[a] |
| COC(=O)[C@H](CC(N)=O)NC(=O)c1sc(Br)c(Br)c1C [I.053] | 2.12^[a] |
| CCOC(=O)C1(CNC(=O)c2sc(Br)c(Br)c2C)CC1 [I.013] | 3.79^[a] |
| COC(=O)C(C1CC1)N(O)C(=O)c1sc(Cl)c(Cl)c1C (centres unmarked) [I.114] | 3.13^[a] |
| Cc1c(C(=O)NC(C#N)C(C)C)sc(Br)c1Br (centres unmarked) [I.028] | 3.64^[a] |
| CCOC(=O)C(CSC(C)=O)NC(=O)c1sc(Cl)c(Cl)c1C (centres unmarked) [I.126] | 3.51^[a] |

Same assay, conditions: method [a]: LC-UV, acidic range, 0.1% formic acid in water and acetonitrile as eluent

| SMILES | LogP |
| --- | --- |
| COC(=O)[C@H](Cc1ccccc1)NC(=O)[C@H](CC(=O)O)NC(=O)c1sc(Cl)c(Cl)c1C [I.048] | 3.09^[a] |
| Cc1c(C(=O)N[C@H]2CCOC2=O)sc(Cl)c1Cl [I.167] | 2.34^[a] |
| Cc1c(C(=O)NC2CCOC2=O)sc(Br)c1Br (centres unmarked) [I.021] | 2.41^[a] |
| Cc1c(C(=O)N[C@H]2CCCNC2=O)sc(Cl)c1Cl [I.162] | 2.12^[a] |
| Cc1c(C(=O)NC2(C#N)CCC(C3CCCCC3)CC2)sc(Br)c1Br (centres unmarked) [I.151] | 6.06^[a] |
| Cc1c(C(=O)NC2CCNC2=O)sc(Br)c1Br (centres unmarked) [I.064] | 1.93^[a] |
| Cc1c(C(=O)NC2(C#N)CCC(c3ccccc3)CC2)sc(Br)c1Br (centres unmarked) [I.170] | 4.78^[a] |
| Cc1c(C(=O)NC2CCSC2=O)sc(Br)c1Br (centres unmarked) [I.002] | 3.04^[a] |
| COC(=O)[C@H](Cc1ccccc1)NC(=O)[C@H](CC(=O)O)NC(=O)c1sc(Br)c(Br)c1C [I.105] | 3.11^[a] |
| Cc1c(C(=O)NC2CCCCNC2=O)sc(Cl)c1Cl (centres unmarked) [I.163] | 2.67^[a] |
| Cc1c(C(=O)NC2C(=O)SC2(C)C)sc(Br)c1Br (centres unmarked) [I.001] | 3.99^[a] |
| Cc1c(C(=O)NC2CCSC2=O)sc(Cl)c1Cl (centres unmarked) [I.037] | 2.86^[a] |

Same assay, conditions: method [b]: LC-UV, neutral range, 0.001 molar ammonium acetate solution in water and acetonitrile as eluent

| SMILES | LogP |
| --- | --- |
| Cc1c(C(=O)N[C@H]2CCSC2=O)sc(Cl)c1Cl [I.111] | 2.97^[b] |

Same assay, conditions: reversed phase HPLC columns; preparation examples; method not indicated; read-out: Log P

| SMILES | chromatographic logP |
| --- | --- |
| Cc1c(C(=O)NCC(=O)O)sc(Br)c1Br [N-[(4,5-dibromo-3-methyl-2-thienyl)carbonyl]glycine] | 2.05 |
| Cc1c(C(=O)NC2(C(=O)O)CC2)sc(Cl)c1Cl [1-{[(4,5-dichloro-3-methyl-2-thienyl)carbonyl]amino}cyclopropanecarboxylic acid] | 2.17 |
